Assay type in all cases: in vivo
The subject of assay [1] is wheat (Triticum aestivum var. Lew). Description: post-emergence herbicidal activity, wheat. As to conditions: 1 Kg/Ha, about fourteen days, read-out: post-emergence herbicidal activity (% control) WHT. The essentials:
(§1)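 Application rate was 1 Kg/Ha, sprayed post-emergence from a water/acetone solution onto flat-grown plants. Injury is expressed as percent control, 100 meaning complete control, assessed roughly two weeks later.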

The subject of assay [2] is velvetleaf (Abutilon theophrasti). Kind of assay: post-emergence herbicidal activity, velvetleaf. The following applies: 1 Kg/Ha, about fourteen days, read-out: post-emergence herbicidal activity (% control) ABUTH. In a few lines: as §1
Assay [3] relates to soybean (Glycine max -- var. Winchester). Kind of assay: post-emergence herbicidal activity, soybean. The following applies: 1 Kg/Ha, about fourteen days, read-out: post-emergence herbicidal activity (% control) SOY. The essentials: as §1
The test system of assay [4] is velvetleaf (Abutilon theophrasti). Kind of assay: pre-emergence herbicidal activity, velvetleaf. The following applies: 1 kg/Ha, about fourteen days, read-out: pre-emergence herbicidal activity (% control) ABUTH. The essentials: (§2)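 Seeds sown in soil flats and sprayed pre-emergence with a water/acetone solution of test compound at 1 kg/Ha; untreated controls kept alongside. Phytotoxicity scored after about fourteen days as percent control, 0 being no effect and 100 complete control.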

In assay [5] the test system is green foxtail (Setaria viridis). Kind of assay: post-emergence herbicidal activity, green foxtail. The following applies: 1 Kg/Ha, about fourteen days, read-out: post-emergence herbicidal activity (% control) SETVI. The essentials: as §1
The subject of assay [6] is morningglory (Ipomea lacunosa or Ipomea hederacea). Kind of assay: post-emergence herbicidal activity, morningglory. The following applies: Ipomoea, 1 Kg/Ha, about fourteen days, read-out: post-emergence herbicidal activity (% control) IPOSS. The essentials: as §1
In assay [7] the test system is field corn (Zea mays var. Pioneer 3732). Kind of assay: post-emergence herbicidal activity, corn. The following applies: 1 Kg/Ha, about fourteen days, read-out: post-emergence herbicidal activity (% control) CRN. The essentials: as §1
For assay [8], the system named is common cocklebur (Xanthium strumarium L.). Kind of assay: post-emergence herbicidal activity, cocklebur. As to conditions: 1 Kg/Ha, about fourteen days, read-out: post-emergence herbicidal activity (% control) XANPE. The essentials: as §1
The subject of assay [9] is common chickweed (Stellaria media). Kind of assay: post-emergence herbicidal activity, chickweed. The following applies: 1 Kg/Ha, about fourteen days, read-out: post-emergence herbicidal activity (% control) STEME. Here is the method:
(§3) This example sets forth the methods of herbicidal testing conducted on the specific compounds set forth below. Specifically, the compounds referenced below were tested for pre- and post-emergence herbicidal activity using a variety of crops and weeds. The test plants include, but are not limited to, soybean (Glycine max -- var. Winchester), field corn (Zea mays var. Pioneer 3732), wheat (Triticum aestivum var. Lew), morningglory (Ipomea lacunosa or Ipomea hederacea), velvetleaf (Abutilon theophrasti), green foxtail (Setaria viridis), Johnsongrass (Sorghum halepense), blackgrass (Aloepecurus myosuroides), common chickweed (Stellaria media), and common cocklebur (Xanthium strumarium L.).
(§4) In the post-emergence test, seeds of the plant species named above were planted in flats containing the appropriate soil mixture where they were maintained to allow the seeds to germinate. When the plants in these flats reached the proper stage of growth, flats for the pre-emergence tests were planted in a like manner. The flats containing the post-emergence and pre-emergence test plant species were then sprayed with an appropriately concentrated water/acetone solution of test compound. Once treated the flats were maintained, along with untreated controls, for about fourteen days. All treated plants were then examined for phytotoxicity, which was expressed as percent control where 0 is no effect and 100 is complete control. Effective rates of application for the compounds of the present invention range from 0.001 to 3 kg/ha, more likely from […] to 1 Kg/ha.
(§5) Herbicidal activity data at selected application rates are in Tables 4 and 5. The test compounds are identified by numbers correspond to those in Table 1.
(§6) SOY is soybean, WHT is wheat, CRN is corn, ABUTH is velvetleaf, IPOSS is
(§7) morningglory, STEME is chickweed, XANPE is cocklebur, ALOMY is blackgrass,
(§8) Rate of application of test compound is 1 Kg/Ha. The definitions as shown under Table 4 apply to Table 5.

In assay [10] the test system is common cocklebur (Xanthium strumarium L.). Description: pre-emergence herbicidal activity, cocklebur. The following applies: 1 kg/Ha, about fourteen days, read-out: pre-emergence herbicidal activity (% control) XANPE. The essentials: as §2
The test system of assay [11] is common chickweed (Stellaria media). Description: pre-emergence herbicidal activity, chickweed. The following applies: 1 kg/Ha, about fourteen days, read-out: pre-emergence herbicidal activity (% control) STEME. In a few lines: as §2
The test system of assay [12] is soybean (Glycine max -- var. Winchester). Kind of assay: pre-emergence herbicidal activity, soybean. As to conditions: 1 kg/Ha, about fourteen days, read-out: pre-emergence herbicidal activity (% control) SOY. The essentials:
as §2

Assay [13] has as its system blackgrass (Aloepecurus myosuroides). Description: post-emergence herbicidal activity, blackgrass. The following applies: Alopecurus myosuroides, 1 Kg/Ha, about fourteen days, read-out: post-emergence herbicidal activity (% control) ALOMY. Here is the method: as §3, §4, §5, §6, §7, §8
For assay [14], the system named is green foxtail (Setaria viridis). Kind of assay: pre-emergence herbicidal activity, green foxtail. As to conditions: 1 kg/Ha, about fourteen days, read-out: pre-emergence herbicidal activity (% control) SETVI. The essentials:
as §2

In assay [15] the test system is field corn (Zea mays var. Pioneer 3732). Kind of assay: pre-emergence herbicidal activity, corn. As to conditions: 1 kg/Ha, about fourteen days, read-out: pre-emergence herbicidal activity (% control) CRN. In a few lines:
as §2

The test system of assay [16] is morningglory (Ipomea lacunosa or Ipomea hederacea). Description: pre-emergence herbicidal activity, morningglory. As to conditions: Ipomoea, 1 kg/Ha, about fourteen days, read-out: pre-emergence herbicidal activity (% control) IPOSS. In a few lines:
as §2

Assay [17] deals with blackgrass (Aloepecurus myosuroides). Kind of assay: pre-emergence herbicidal activity, blackgrass. As to conditions: Alopecurus myosuroides, 1 kg/Ha, about fourteen days, read-out: pre-emergence herbicidal activity (% control) ALOMY. The essentials:
as §2

Assay [18] has as its system wheat (Triticum aestivum var. Lew). Kind of assay: pre-emergence herbicidal activity, wheat. The following applies: 1 kg/Ha, about fourteen days, read-out: pre-emergence herbicidal activity (% control) WHT. In a few lines:
as §2

Assay [19] concerns Johnsongrass (Sorghum halepense). Description: post-emergence herbicidal activity, johnsongrass. As to conditions: 1 Kg/Ha, about fourteen days, read-out: post-emergence herbicidal activity (% control) SORHA. In a few lines: as §1
Assay [20] has the same test system. Description: pre-emergence herbicidal activity, johnsongrass. The following applies: 1 kg/Ha, about fourteen days, read-out: pre-emergence herbicidal activity (% control) SORHA. Here is the method: as §3, §4, §5
Rate of application of test compound is 1 kg/Ha
as §6
morningglory, STEME is chickweed, XANPE is cocklebur, ALOMY is blackgrass, […]

These results are taken from patent US6277847A, “Herbicidal isoindolinonyl-and 3,4-dihydroisoquinolonyl-substituted heterocycles” (FMC Corporation, priority 2000, dated 2001).

As to `CC(C)N1Cc2c(-n3c(=O)cc(C(F)(F)F)n(C)c3=O)ccc(Br)c2C1=O` [Compound 81], the activity at 1000 g/ha in [1], in assay [2], in assay [3], in assay [4], in assay [5] and in [6] was 100% throughout. Also, the activity at 1000 g/ha in assay [7], in [8], in assay [9], in assay [10], in assay [11] and in assay [12] was 100% in each case. For the same compound, the activity at 1000 g/ha in assay [13], in [14], in assay [15], in [16], in [17] and in [18] was 100% each time.
Turning to `Cn1c(C(F)(F)F)cc(=O)n(-c2ccc(Cl)c3c2CN(C2CCCCC2)C3=O)c1=O` [Compound 77], the activity at 1000 g/ha stood at 80% in assay [1]; 100% in assay [2]; 95% in assay [3]; 100% in assay [4]; 100% in assay [5]; 100% in assay [6]. Also, the activity at 1000 g/ha in [7], in assay [8], in assay [9], in assay [10], in [11] and in assay [12] was 100% throughout. Moreover, the activity at 1000 g/ha in assay [13] was determined as 100%; in assay [14] it was 100%; in [15], 90%; in [16], 100%; in [17], 95%; in assay [18], 80%.
Take `C=CCn1c(C(F)(F)F)cc(=O)n(-c2ccc(Cl)c3c2CN(C(C)C)C3=O)c1=O` [Compound 80]: the activity at 1000 g/ha in [1] amounted to 50%; in assay [2], 95%; in assay [3], 85%; in [4] it was 100%; in assay [5], 80%; in assay [6] it was 30%. The activity at 1000 g/ha in assay [7] is 75%; in assay [8] it was 40%; in assay [9] it was 100%; in assay [10] it was 40%; in assay [11] it was 100%; in [12], 70%. Also, the activity at 1000 g/ha in [13] worked out at 65%; in assay [14], 95%; in [15], 70%; in [16] it was 80%; in [17], 80%; in assay [18], 80%.
In the case of `Cn1c(C(F)(F)F)cc(=O)n(-c2ccc(Cl)c3c2CN(C2CCCC2)C3=O)c1=O` [Compound 76], the activity at 1000 g/ha in assay [1] is 100%; in assay [2] it was 100%; in [3] it was 95%; in assay [4], 100%; in assay [5], 100%; in [6], 100%. The activity at 1000 g/ha in assay [7], in [8], in assay [9], in [10], in [11] and in [12] was 100% in each case. Further, the activity at 1000 g/ha in assay [13] came to 100%; in [14], 100%; in assay [15], 95%; in [16], 100%; in assay [17], 90%; in [18], 80%.
As for `CCN1Cc2c(-n3c(=O)cc(C(F)(F)F)n(C)c3=O)ccc(Cl)c2C1=O` [Compound 22], the activity at 1000 g/ha in assay [1], in assay [19], in assay [2], in assay [3], in [4] and in assay [5] was 100% throughout. The activity at 1000 g/ha in assay [6], in [7], in assay [8], in assay [9], in [10] and in assay [11] was 100% in each case. Moreover, the activity at 1000 g/ha in assay [12], in assay [14], in [15], in [16], in [18] and in assay [20] was 100% in each case.
On to `CCON1Cc2c(-n3c(=O)cc(C(F)(F)F)n(C)c3=O)ccc(Cl)c2C1=O` [Compound 19], for which the activity at 1000 g/ha in assay [1], in assay [19], in assay [2], in [3], in assay [4] and in [5] was 100% throughout. In addition, the activity at 1000 g/ha in assay [6], in assay [7], in [8], in assay [9], in assay [10] and in [11] was 100% in each case. Moreover, the activity at 1000 g/ha in assay [12], in assay [14], in [15], in assay [16], in assay [18] and in [20] was 100% throughout.
